Source: PubChem BioAssay (NCI)
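Where inhibition never reached the appropriate level, the endpoint shown equals the highest concentration tested. Otherwise, values were interpolated linearly from a five-concentration, 48-hour dose response in 96-well plates. Definition used: TGI = concentration required for complete inhibition of growth.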

Tests used:
Test in all cases: NCI anticancer screen, dose series, 48 h
PC-3 prostate = tested on: PC-3 prostate
RXF 393 renal = tested on: RXF 393 renal
HCC-2998 colon = tested on: HCC-2998 colon
BT-549 breast = tested on: BT-549 breast
HCT-15 colon = tested on: HCT-15 colon
OVCAR-4 ovarian = tested on: OVCAR-4 ovarian
MDA-MB-435 = tested on: MDA-MB-435
A498 renal = tested on: A498 renal
SK-MEL-2 melanoma = tested on: SK-MEL-2 melanoma
EKVX NSCLC = tested on: EKVX NSCLC
ACHN renal = tested on: ACHN renal
MOLT-4 leukemia = tested on: MOLT-4 leukemia
TK-10 renal = tested on: TK-10 renal
MDA-N = tested on: MDA-N
SN12C renal = tested on: SN12C renal
DU-145 prostate = tested on: DU-145 prostate
A549 NSCLC = tested on: A549 NSCLC
T-47D breast = tested on: T-47D breast
SK-MEL-28 melanoma = tested on: SK-MEL-28 melanoma
SK-OV-3 ovarian = tested on: SK-OV-3 ovarian
SF-539 CNS = tested on: SF-539 CNS
COLO 205 colon = tested on: COLO 205 colon
CCRF-CEM leukemia = tested on: CCRF-CEM leukemia
HOP-92 NSCLC = tested on: HOP-92 NSCLC
HCT-116 colon = tested on: HCT-116 colon
NCI-H23 lung = tested on: NCI-H23 lung
U251 CNS = tested on: U251 CNS
K-562 leukemia = tested on: K-562 leukemia
NCI/ADR-RES ovarian = tested on: NCI/ADR-RES ovarian
HL-60(TB) leukemia = tested on: HL-60(TB) leukemia
786-0 renal = tested on: 786-0 renal
HS 578T breast = tested on: HS 578T breast
SW-620 colon = tested on: SW-620 colon
SF-295 CNS = tested on: SF-295 CNS
MCF7 breast = tested on: MCF7 breast
OVCAR-8 ovarian = tested on: OVCAR-8 ovarian
NCI-H226 lung = tested on: NCI-H226 lung
IGROV1 ovarian = tested on: IGROV1 ovarian
HOP-62 NSCLC = tested on: HOP-62 NSCLC
SK-MEL-5 melanoma = tested on: SK-MEL-5 melanoma
KM12 colon = tested on: KM12 colon
NCI-H460 lung = tested on: NCI-H460 lung
LOX IMVI melanoma = tested on: LOX IMVI melanoma
NCI-H522 lung = tested on: NCI-H522 lung
RPMI-8226 leukemia = tested on: RPMI-8226 leukemia
MALME-3M melanoma = tested on: MALME-3M melanoma
UACC-257 melanoma = tested on: UACC-257 melanoma
UACC-62 melanoma = tested on: UACC-62 melanoma
OVCAR-5 ovarian = tested on: OVCAR-5 ovarian
SF-268 CNS = tested on: SF-268 CNS
M14 melanoma = tested on: M14 melanoma
MDA-MB-231 breast = tested on: MDA-MB-231 breast
UO-31 renal = tested on: UO-31 renal
HT29 colon = tested on: HT29 colon
OVCAR-3 ovarian = tested on: OVCAR-3 ovarian
SNB-75 CNS = tested on: SNB-75 CNS
SR leukemia = tested on: SR leukemia
SNB-19 CNS = tested on: SNB-19 CNS
CAKI-1 renal = tested on: CAKI-1 renal

Measured: TGI

COc1ccc(C[C@H]2NC[C@H](OC(C)=O)[C@H]2OC(C)=O)cc1
1.44 µM: NCI-H460 lung
0.651 µM: RXF 393 renal
0.674 µM: IGROV1 ovarian
0.732 µM: MDA-N
0.606 µM: EKVX NSCLC
0.357 µM: HCC-2998 colon
1.08 µM: PC-3 prostate | A549 NSCLC | NCI-H226 lung
0.706 µM: OVCAR-4 ovarian
1.18 µM: CCRF-CEM leukemia
1.46 µM: KM12 colon
0.85 µM: OVCAR-3 ovarian
1.04 µM: HT29 colon
2.56 µM: SK-OV-3 ovarian
0.289 µM: NCI-H522 lung
1.6 µM: U251 CNS
0.326 µM: HL-60(TB) leukemia
0.975 µM: HCT-15 colon
1.14 µM: SW-620 colon
0.788 µM: NCI/ADR-RES ovarian
1.98 µM: MOLT-4 leukemia
1.05 µM: 786-0 renal
0.356 µM: HOP-92 NSCLC
0.345 µM: SK-MEL-5 melanoma
0.564 µM: BT-549 breast
0.853 µM: ACHN renal
51.6 µM: K-562 leukemia
3.45 µM: SR leukemia
0.752 µM: SN12C renal
0.308 µM: SF-268 CNS
> 35.3 µM: TK-10 renal
0.7 µM: T-47D breast
10.4 µM: SF-539 CNS
2 µM: OVCAR-8 ovarian
1.49 µM: MDA-MB-231 breast
4.23 µM: UACC-62 melanoma
1.23 µM: MDA-MB-435
0.562 µM: SK-MEL-28 melanoma
0.94 µM: NCI-H23 lung
0.331 µM: LOX IMVI melanoma
0.362 µM: SNB-75 CNS
0.465 µM: HS 578T breast
0.311 µM: COLO 205 colon
4.27 µM: A498 renal
1.95 µM: RPMI-8226 leukemia
0.446 µM: SNB-19 CNS
> 100 µM: MCF7 breast
4.26 µM: SF-295 CNS
2.75 µM: HOP-62 NSCLC
0.627 µM: SK-MEL-2 melanoma
0.561 µM: MALME-3M melanoma
0.903 µM: DU-145 prostate
0.679 µM: OVCAR-5 ovarian
0.328 µM: M14 melanoma
0.371 µM: UO-31 renal
0.544 µM: CAKI-1 renal
2.98 µM: UACC-257 melanoma
0.685 µM: HCT-116 colon

O=S(=O)(O)c1ccc(N=Nc2c(O)ccc3ccccc23)cc1
> 100 µM: PC-3 prostate | RXF 393 renal | HCC-2998 colon | BT-549 breast | HCT-15 colon | OVCAR-4 ovarian | MDA-MB-435 | A498 renal | SK-MEL-2 melanoma | EKVX NSCLC | ACHN renal | MOLT-4 leukemia | TK-10 renal | MDA-N | SN12C renal | DU-145 prostate | A549 NSCLC | T-47D breast | SK-MEL-28 melanoma | SK-OV-3 ovarian | SF-539 CNS | COLO 205 colon | CCRF-CEM leukemia | HOP-92 NSCLC | HCT-116 colon | NCI-H23 lung | U251 CNS | K-562 leukemia | NCI/ADR-RES ovarian | HL-60(TB) leukemia | 786-0 renal | HS 578T breast | SW-620 colon | SF-295 CNS | MCF7 breast | OVCAR-8 ovarian | NCI-H226 lung | IGROV1 ovarian | HOP-62 NSCLC | SK-MEL-5 melanoma | KM12 colon | NCI-H460 lung | LOX IMVI melanoma | NCI-H522 lung | RPMI-8226 leukemia | MALME-3M melanoma | UACC-257 melanoma | UACC-62 melanoma | OVCAR-5 ovarian | SF-268 CNS | M14 melanoma | MDA-MB-231 breast | UO-31 renal | HT29 colon | OVCAR-3 ovarian | SNB-75 CNS | SR leukemia | SNB-19 CNS | CAKI-1 renal

Cc1cccc2c1CC(C1OC(=O)c3c(C)cccc31)C2=O (configuration not stated)
> 100 µM: PC-3 prostate | RXF 393 renal | HCC-2998 colon | BT-549 breast | HCT-15 colon | OVCAR-4 ovarian | MDA-MB-435 | A498 renal | SK-MEL-2 melanoma | EKVX NSCLC | ACHN renal | MOLT-4 leukemia | TK-10 renal | MDA-N | SN12C renal | DU-145 prostate | A549 NSCLC | T-47D breast | SK-MEL-28 melanoma | SK-OV-3 ovarian | SF-539 CNS | COLO 205 colon | CCRF-CEM leukemia | HOP-92 NSCLC | HCT-116 colon | NCI-H23 lung | U251 CNS | K-562 leukemia | NCI/ADR-RES ovarian | HL-60(TB) leukemia | 786-0 renal | HS 578T breast | SW-620 colon | SF-295 CNS | MCF7 breast | OVCAR-8 ovarian | NCI-H226 lung | IGROV1 ovarian | HOP-62 NSCLC | SK-MEL-5 melanoma | KM12 colon | NCI-H460 lung | LOX IMVI melanoma | NCI-H522 lung | RPMI-8226 leukemia | MALME-3M melanoma | UACC-257 melanoma | UACC-62 melanoma | OVCAR-5 ovarian | SF-268 CNS | M14 melanoma | MDA-MB-231 breast | UO-31 renal | HT29 colon | OVCAR-3 ovarian | SNB-75 CNS | SR leukemia | SNB-19 CNS | CAKI-1 renal
